Test results as given in PubChem BioAssay (NCI).
“And” between values parts separate entries of the source, which are not always exact repeats. Identical values can stand only once.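 Five concentrations, 48 hours, 96-well plates. GI50: concentration for 50% inhibition of growth. The concentration for full growth arrest is given as TGI.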

Legend:
Assay in all cases: NCI-60 cell line screen, 48 h
[1] = system: NCI/ADR-RES ovarian
[2] = system: MCF7 breast
[3] = system: PC-3 prostate
[4] = system: UACC-257 melanoma
[5] = system: HL-60(TB) leukemia
[6] = system: RXF 393 renal
[7] = system: MALME-3M melanoma
[8] = system: MDA-MB-231 breast
[9] = system: SW-620 colon
[10] = system: KM12 colon

Row | Compound | GI50 [1] [µM] | TGI [1] | GI50 [2] [µM] | TGI [2] | GI50 [3] [µM] | TGI [3] | TGI [4] | GI50 [5] [µM] | TGI [5] | TGI [6] [µM] | TGI [7] | GI50 [8] [µM] | GI50 [9] [µM] | TGI [9] | GI50 [10] [µM] | TGI [10] | GI50 [4] [µM] | GI50 [6] [µM] | GI50 [7] [µM] | TGI [8] [µM]
1 | CCN(CC)CCCC(C)Nc1c2ccc(Cl)cc2nc2ccc(OC)cc12 (stereo not drawn) | 2.26 | 9.69 µM and 7.81 µM | 2.33 | 8.04 µM and 10.7 µM | 2.24 | 9.19 µM and 5.73 µM | 3.43 µM and 3.38 µM | 1.81 | 9.64 µM and 10.7 µM | 2.53 | 3.79 µM and 3.3 µM | 0.968 | 1.18 | 8.55 µM and 4.35 µM | 2.39 | 7.83 µM and 5.14 µM | – | – | – | –
2 | COc1cc(/C=C/C(=O)CC(=O)/C=C/c2cc(OC)c(OC)c(OC)c2)cc(OC)c1OC | 4.18 | > 100 µM | 2.13 | > 100 µM | 3.02 | > 100 µM | 31.1 µM | 5.15 | > 100 µM | 8.84 | 21.7 µM | 3.13 | 2.56 | 11.3 µM | 4.58 | 63 µM | 3.23 | 3.09 | 5.06 | 9.12
3 | CCN(CC)CC(O)CNc1ccc(NCC2CO2)c2c1C(=O)c1ccccc1C2=O (stereo not drawn) | – | 0.815 µM | 0.0284 | 0.169 µM | 0.395 | 3.06 µM | 4.04 µM | 0.00216 | – | 0.953 | 5.44 µM | – | 0.0713 | 0.797 µM | – | 1.74 µM | – | – | – | 3.01
4 | O=c1c(Oc2ccc(F)cc2F)cc2cnc(NC3CCOCC3)nc2n1C1CCS(=O)(=O)CC1 | > 25 | > 25 µM | > 25 | > 25 µM | > 25 | > 25 µM | > 25 µM | > 25 | > 25 µM | > 25 | > 25 µM | > 25 | > 25 | > 25 µM | > 25 | > 25 µM | > 25 | > 25 | > 25 | > 25
5 | COc1cc(OC)cc(C2CC(=O)Nc3c2c(C)nn3-c2nc3ccccc3[nH]2)c1 (stereo not drawn) | 4.47 | > 100 µM | 2.94 | > 100 µM | 3.09 | 41.7 µM | 7.32 µM | 2.34 | 7.37 µM | 24.6 | > 100 µM | 3.66 | 3.31 | 12.9 µM | 2.79 | 7.68 µM | 2.64 | 3.21 | 3.66 | > 100
6 | CCN1CCN(C(=O)[C@]23CC[C@@H](C)[C@H](C)[C@@H]2C2=CC[C@@H]4[C@@]5(C)C/C(=C/c6ccncc6)C(=O)C(C)(C)[C@@H]5CC[C@@]4(C)[C@]2(C)CC3)CC1 | 1.7 | 3.69 µM | 1.57 | 3.2 µM | 1.34 | 3.01 µM | 3.92 µM | 1.9 | 4.9 µM | 2.79 | 2.83 µM | 1.55 | 1.71 | 3.7 µM | 1.87 | 3.66 µM | 1.84 | 1.39 | 1.5 | 2.95
7 | CCOC(=O)C(Cc1c[nH]c2ccc(N)cc12)(NC(C)=O)C(=O)OCC | > 1000 | > 1000 µM | > 1000 | > 1000 µM | > 1000 | > 1000 µM | > 1000 µM | 758 | > 1000 µM | > 1000 | > 1000 µM | > 1000 | > 1000 | > 1000 µM | > 1000 | > 1000 µM | > 1000 | > 1000 | > 1000 | > 1000
8 | COc1cc(OC)c(/C=C/S(=O)(=O)Cc2cnc(OC)c(N)c2)c(OC)c1 | < 0.01 | > 100 µM | < 0.0155 | > 100 µM | < 0.0187 | > 100 µM | > 100 µM | < 0.0167 | – | > 100 | > 100 µM | < 0.0276 | < 0.0188 | > 100 µM | < 0.0157 | > 100 µM | > 62 | < 0.01 | > 100 | > 100
